Earlier results as cited in publication PMC11053489 (Viruses, 2024).

Test system: SARS-CoV-2 with mutations in the RNA-dependent RNA polymerase gene
Details: cited from earlier work

In the case of `CCC(CC)COC(=O)[C@H](C)N[P@](=O)(OC[C@H]1O[C@@](C#N)(c2ccc3c(N)ncnn23)[C@H](O)[C@@H]1O)Oc1ccccc1` [Remdesivir], the “increase in EC50 of resistant lineages” value is listed as 2.5 to 10 fold.
